IC50 and melting point data for 45 molecules are collected here from patent publication US7960393B2, “Pyrimidine derivatives useful for the treatment of diseases mediated by CRTH2” (Actimis Pharmaceuticals, Inc., priority 2002, dated 2011).

SMILES strings stand for the structures. A value given as a limit tells only on which side of the number the result lay.

One data set deals with T1, human CRTH2 (Homo sapiens, UniProt Q9Y5Y4).
T1 construct: expressed in transfected cells; host or cells: L1.2 cells, pEAK expression vector, puromycin-selected
T1 sequence (Q9Y5Y4 1-395): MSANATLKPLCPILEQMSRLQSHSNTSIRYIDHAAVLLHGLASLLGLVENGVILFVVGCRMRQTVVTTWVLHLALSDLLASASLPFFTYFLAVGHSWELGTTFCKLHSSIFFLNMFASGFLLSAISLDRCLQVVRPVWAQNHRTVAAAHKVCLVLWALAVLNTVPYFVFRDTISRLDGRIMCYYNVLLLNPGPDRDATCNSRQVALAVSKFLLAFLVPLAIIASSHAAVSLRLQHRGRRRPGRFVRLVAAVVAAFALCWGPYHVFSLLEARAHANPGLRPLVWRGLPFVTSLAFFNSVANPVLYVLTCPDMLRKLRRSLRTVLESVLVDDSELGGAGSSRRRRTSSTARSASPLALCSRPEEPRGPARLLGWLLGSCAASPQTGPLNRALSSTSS
Description: Measurement of Ca2+ mobilization in the human CRTH2-transfected L1.2 cell line (Assay 1). The following applies: PGD2-induced Ca2+ mobilization in CRTH2-transfected L1.2 cells; compounds as yielded by solid phase synthesis, purity about 40 to 90%; read-out: Activity class. Type of data set: cell-based. The method, boiled down: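 Human CRTH2 was stably expressed in L1.2 cells (puromycin-selected) loaded with Fluo-3AM (1 μM final) for 60 min at room temperature. Buffer was 20 mM HEPES pH 7.6, 0.1% BSA, 1 mM probenecid in Hanks'. Cells (2×10^5/well) got compound for 5 min at RT, with fluorescence at 480 nm. IC50 bins: A ≤10 nM, B ≤100 nM, C ≤500 nM, D above; samples were solid-phase products of about 40–90% purity.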

Turning to `O=C(O)Cc1cnc(Cc2ccc(NC(=O)c3ccc(Cl)cc3)cc2)nc1N1CCCC1` [Example 2-28], the melting point lay within 151 to 153 °C. Also, the IC50 at human CRTH2 was below 10 nM.
On to `CN(CC(=O)NC1CCCC1)c1nc(Cc2ccc(NC(=O)c3ccc4ccccc4n3)cc2)nc(Cl)c1CC(=O)O` [Example 1-16], for which the melting point stood at 137 °C. On human CRTH2, the IC50 is below 10 nM.
For the molecule `O=C(O)Cc1cnc(Cc2ccc(NC(=O)CC3CC3)cc2)nc1N1CCCC1` [Example 2-33], the melting point was 145 to 148 °C (dec.). Further, the IC50 on human CRTH2 was 100 to 500 nM.
The like results for `COc1c(C)cc(C(=O)Nc2ccc(Cc3nc(Cl)c(CC(=O)O)c(N4CCCC4)n3)cc2)cc1C` [Example 1-59] were, in that order, 115 °C and below 10 nM.
In the case of `COCc1nc(Cc2ccc(NC(=O)OCc3ccccc3)cc2)nc(N(C)C)c1CC(=O)O` [Example 9-5], the melting point was 88 to 90 °C. Besides, the IC50 at human CRTH2 is above 500 nM.
For the molecule `CN(C)c1nc(Cc2ccc(NC(=O)c3ccc4ccccc4n3)cc2)nc(N2CCCC2)c1CC(=O)O` [Example 7-9], the melting point is 131 to 133 °C. The IC50 at human CRTH2 was in the range of 100 to 500 nM.
Turning to `CN(CC(=O)NC1CCCC1)c1nc(Cc2ccc(NC(=O)c3ccc(Cl)cc3)cc2)nc(Cl)c1CC(=O)O` [Example 1-18], the melting point worked out at 143 °C. For the same molecule, the IC50 on human CRTH2 was below 10 nM.
`CCCC(=O)Nc1ccc(Cc2ncc(CC(=O)O)c(N3CCCC3)n2)cc1` [Example 2-36] had a melting point of 130 to 133 °C. The IC50 at human CRTH2 was in the range of 100 to 500 nM.
Take `O=C(O)Cc1c(Cl)nc(Cc2ccc(NC(=O)/C=C/c3ccccc3)cc2)nc1N1CCCC1` [Example 1-60]: the melting point amounted to 120 °C. Besides, the IC50 on human CRTH2 was below 10 nM.
The molecule `COc1ccc(C(=O)Nc2ccc(Cc3nc(Cl)c(CC(=O)O)c(N(C)C)n3)cc2)cc1OC` [Example 1-38] registered a melting point above 95 °C. The IC50 on human CRTH2 lay in the range of 10 to 100 nM.
The like results for `CN(C)c1nc(Cc2ccc(NC(=O)[C@@H]3CCc4ccccc4O3)cc2)nc(Cl)c1CC(=O)O` [Example 1-67] were, in that order, above 120 °C and below 10 nM.
For `CN(C)c1nc(Cc2ccc(NC(=O)/C=C/c3ccccc3)cc2)nc(Cl)c1CC(=O)O` [Example 1-33], the melting point is above 160 °C. Besides, the IC50 on human CRTH2 is below 10 nM.
For `CN(C)c1nc(Cc2ccc(NC(=O)c3cccc(Cl)c3Cl)cc2)nc(Cl)c1CC(=O)O` [Example 1-43], in that order: 101 °C and 100 to 500 nM.
On to `COc1ccc(C(=O)Nc2ccc(Cc3ncc(CC(=O)O)c(N(C)C)n3)cc2)cc1OC` [Example 2-12], for which the melting point was 106 to 110 °C. In addition, the IC50 at human CRTH2 fell in the range of 100 to 500 nM.
The molecule `CC(C)C(=O)Nc1ccc(Cc2nc(Cl)c(CC(=O)O)c(N(C)CC(=O)NC3CCCC3)n2)cc1` [Example 1-5] returned a melting point above 142 °C. The IC50 on human CRTH2 is above 500 nM.
Molecule `CCc1nc(Cc2ccc(NC(=O)OCc3ccccc3)cc2)nc(N(C)C)c1CC(=O)O` [Example 9-6] registered a melting point of 120 to 123 °C. Also, on human CRTH2, the IC50 is above 500 nM.
`CN(C)c1nc(Cc2ccc(NC(=O)c3ccc4ccccc4n3)cc2)nc(Cl)c1CC(=O)O` [Example 1-32] came in with a melting point of 135 to 142 °C. Besides, the IC50 on human CRTH2 is below 10 nM.
Molecule `CN(CC(=O)NC1CCCC1)c1nc(Cc2ccc(NC(=O)CC3CCCCC3)cc2)nc(Cl)c1CC(=O)O` [Example 1-13] showed a melting point above 149 °C. The IC50 at human CRTH2 lay within 10 to 100 nM.
The molecule `CN(C)c1nc(Cc2ccc(NC(=O)c3ccc(F)c(F)c3)cc2)nc(Cl)c1CC(=O)O` [Example 1-45] had a melting point above 94 °C. Besides, at human CRTH2, the IC50 was below 10 nM.
In turn, `CN(CC(=O)NC1CCCC1)c1nc(Cc2ccc(NC(=O)c3ccccc3)cc2)nc(Cl)c1CC(=O)O` [Example 1-9] returned a melting point above 140 °C. For the same molecule, the IC50 at human CRTH2 fell in the range of 10 to 100 nM.
Consider `O=C(O)Cc1c(Cl)nc(Cc2ccc(NC(=O)c3ccc(Cl)cc3)cc2)nc1N1CCCC1` [Example 1-63], for which the melting point was 173 °C. The IC50 at human CRTH2 was below 10 nM.
Regarding `CC(c1ccc(NC(=O)/C=C/c2ccccc2)cc1)c1ncc(CC(=O)O)c(N(C)C)n1` (stereo not drawn) [Example 2-23], the melting point lay in the range of 150 to 153 °C. Moreover, the IC50 at human CRTH2 is below 10 nM.
`CN(CC(=O)NC1CCCC1)c1nc(Cc2ccc(NC(=O)c3cccc4ccccc34)cc2)nc(Cl)c1CC(=O)O` [Example 1-22]: the melting point turned out to be 136 °C. Besides, at human CRTH2, the IC50 lay within 10 to 100 nM.
For `CC(C)(C)CC(=O)Nc1ccc(Cc2ncc(CC(=O)O)c(N3CCCC3)n2)cc1` [Example 2-35], in that order: 147 to 150 °C and 10 to 100 nM.
The molecule `CN(C)c1nc(Cc2ccc(NC(=O)/C=C/c3ccc(Cl)cc3)cc2)nc(N2CCCC2)c1CC(=O)O` [Example 7-10] showed a melting point of 146 to 149 °C. Further, at human CRTH2, the IC50 was below 10 nM.
For `N=C(N)Nc1ccc(C(=O)Nc2ccc(Cc3nc(Cl)c(CC(=O)O)c(N4CCCC4)n3)cc2)cc1` [Example 1-52], in that order: 176 °C and above 500 nM.
`CN(C)c1nc(Cc2ccc(NC(=O)/C=C/c3ccc(C(F)(F)F)cc3)cc2)nc(Cl)c1CC(=O)O` [Example 1-68] had a melting point above 199 °C. Besides, on human CRTH2, the IC50 was below 10 nM.
In turn, `CN(CC(=O)NC1CCCC1)c1nc(Cc2ccc(NCc3ccccc3)cc2)nc(Cl)c1CC(=O)O` [Example 5-2] registered a melting point above 70 °C. For the same molecule, the IC50 on human CRTH2 was above 500 nM.
For `CN(C)c1nc(Cc2ccc(NC(=O)c3ccc(Cl)c(Cl)c3)cc2)nc(Cl)c1CC(=O)O` [Example 1-34], the melting point is above 168 °C. Further, the IC50 at human CRTH2 was below 10 nM.
For `CN(C)c1nc(Cc2ccccc2NC(=O)c2ccc3ccccc3c2)nc(Cl)c1CC(=O)O` [Example 1-50], in that order: 295 °C and above 500 nM.
The like results for `CN(C)c1nc(Cc2ccc(NC(=O)c3cccc(Cl)c3)cc2)ncc1CC(=O)O` [Example 2-15] were, in that order, 111 to 113 °C and 10 to 100 nM.
For `COc1ccc(C(=O)Nc2ccc(Cc3nc(Cl)c(CC(=O)O)c(N(C)C)n3)cc2)cc1` [Example 1-36], in that order: above 130 °C and below 10 nM.
For the molecule `CN(CC(=O)NC1CCCC1)c1nc(Cc2ccc(NC(=O)CC3Cc4ccccc4C3)cc2)nc(Cl)c1CC(=O)O` [Example 1-28], the melting point is above 110 °C. Further, on human CRTH2, the IC50 is below 10 nM.
Molecule `O=C(O)Cc1c(Cl)nc(Cc2ccc(NC(=O)c3ccc(-n4cccc4)cc3)cc2)nc1N1CCCC1` [Example 1-57] came in with a melting point of 217 °C. Moreover, the IC50 on human CRTH2 was below 10 nM.
`CC(c1ccc(NC(=O)c2ccc(Cl)c(Cl)c2)cc1)c1ncc(CC(=O)O)c(N(C)C)n1` (stereo not drawn) [Example 2-21] gave a melting point of 137 to 140 °C. For the same molecule, at human CRTH2, the IC50 was below 10 nM.
`CN(C)c1nc(Cc2ccc(NC(=O)C3CCC(C(C)(C)C)CC3)cc2)nc(Cl)c1CC(=O)O` (stereo not drawn) [Example 1-51] displayed a melting point of 104 °C. At human CRTH2, the IC50 is below 10 nM.
Regarding `CN(C)c1nc(Cc2ccc(NC(=O)c3ccc(C(F)(F)F)cc3)cc2)nc(N2CCOCC2)c1CC(=O)O` [Example 7-20], the melting point was 212 to 213 °C (dec.). Also, on human CRTH2, the IC50 was 10 to 100 nM.
`CN(C)c1nc(Cc2ccc(NC(=O)OCc3ccccc3)cc2)nc(Cl)c1CC(=O)O` [Example 9-3]: the melting point lay in the range of 88 to 91 °C. For the same molecule, the IC50 on human CRTH2 is below 10 nM.
Molecule `CN(CC(=O)NC1CCCC1)c1nc(Cc2ccc(NCc3ccc4ccccc4c3)cc2)nc(Cl)c1CC(=O)O` [Example 5-3] displayed a melting point above 96 °C. Further, on human CRTH2, the IC50 fell in the range of 100 to 500 nM.
The like results for `CN(C)c1nc(Cc2ccc(NC(=O)c3ccc(Cl)c(Cl)c3)cc2)ncc1CC(=O)O` [Example 2-8] were, in that order, 140 °C and below 10 nM.
Take `CN(C)c1nc(Cc2cccc(NC(=O)c3ccc4ccccc4c3)c2)nc(Cl)c1CC(=O)O` [Example 1-49]: the melting point came to 186 °C. In addition, the IC50 on human CRTH2 fell in the range of 10 to 100 nM.
`COc1ccc(C(=O)Nc2ccc(Cc3ncc(CC(=O)O)c(N(C)C)n3)cc2)cc1` [Example 2-7] registered a melting point of 111 °C. Further, the IC50 at human CRTH2 was below 10 nM.
`CN(C)c1nc(Cc2ccc(NC(=O)c3ccc(F)cc3)cc2)nc(N2CCCC2)c1CC(=O)O` [Example 7-28] showed a melting point of 132 to 135 °C. The IC50 on human CRTH2 lay within 100 to 500 nM.
The molecule `CN(C)c1nc(Cc2ccc(NC(=O)/C=C/c3ccc(Cl)cc3)cc2)nc(Cl)c1CC(=O)O` [Example 1-41] showed a melting point of 117 °C. Also, the IC50 at human CRTH2 was below 10 nM.
In turn, `CN(C)c1nc(Cc2ccc(NC(=O)c3ccccc3-c3ccccc3)cc2)nc(N2CCCC2)c1CC(=O)O` [Example 7-14] displayed a melting point of 132 to 134 °C. Further, the IC50 on human CRTH2 is above 500 nM.
